The text below walks through data of BindingDB's records for PubMed 32739648 (n/a, 2020).

The assay concerns the target Epidermal growth factor receptor (Homo sapiens, UniProt P00533). Description: Inhibition of human EGFR incubated for 1 hrs in presence of ATP by ELISA assay.

SMILES strings stand for the structures.

Sequence of Epidermal growth factor receptor (P00533 whole entry): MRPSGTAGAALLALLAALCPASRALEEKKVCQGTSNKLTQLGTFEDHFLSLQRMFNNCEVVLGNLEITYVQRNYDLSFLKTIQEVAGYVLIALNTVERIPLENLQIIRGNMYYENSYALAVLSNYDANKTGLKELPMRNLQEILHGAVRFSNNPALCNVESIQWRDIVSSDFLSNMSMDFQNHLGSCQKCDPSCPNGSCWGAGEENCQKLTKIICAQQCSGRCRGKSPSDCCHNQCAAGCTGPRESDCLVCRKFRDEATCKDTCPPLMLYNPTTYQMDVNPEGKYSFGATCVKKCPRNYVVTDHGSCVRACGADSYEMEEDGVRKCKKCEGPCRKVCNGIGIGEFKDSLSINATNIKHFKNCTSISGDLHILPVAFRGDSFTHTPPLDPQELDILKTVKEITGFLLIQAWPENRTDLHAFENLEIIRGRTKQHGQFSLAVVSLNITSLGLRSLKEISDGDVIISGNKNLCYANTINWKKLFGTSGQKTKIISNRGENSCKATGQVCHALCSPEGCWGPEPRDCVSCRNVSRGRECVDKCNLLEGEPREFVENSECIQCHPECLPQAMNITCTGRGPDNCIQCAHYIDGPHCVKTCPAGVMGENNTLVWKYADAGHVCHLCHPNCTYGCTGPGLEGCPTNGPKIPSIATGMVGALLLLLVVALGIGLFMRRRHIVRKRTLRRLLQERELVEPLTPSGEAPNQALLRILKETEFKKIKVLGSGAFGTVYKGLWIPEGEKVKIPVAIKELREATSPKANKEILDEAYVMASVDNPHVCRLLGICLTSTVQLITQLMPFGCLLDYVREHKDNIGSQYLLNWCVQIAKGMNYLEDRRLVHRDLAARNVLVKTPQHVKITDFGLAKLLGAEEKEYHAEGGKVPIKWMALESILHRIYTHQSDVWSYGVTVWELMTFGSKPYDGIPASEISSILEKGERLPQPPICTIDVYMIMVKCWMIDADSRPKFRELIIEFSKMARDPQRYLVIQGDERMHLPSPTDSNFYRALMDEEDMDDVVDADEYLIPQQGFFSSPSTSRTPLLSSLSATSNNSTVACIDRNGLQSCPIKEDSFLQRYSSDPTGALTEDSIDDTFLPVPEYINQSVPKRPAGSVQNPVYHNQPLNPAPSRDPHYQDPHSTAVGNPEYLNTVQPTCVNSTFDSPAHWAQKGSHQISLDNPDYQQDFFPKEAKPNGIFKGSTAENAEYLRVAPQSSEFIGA

On to `CSCC[C@@H](NC(=O)[C@@H](NC(=O)[C@@H](NC(=O)CC(=O)N(O)C/C=C(\C)CC/C=C(\C)CCC=C(C)C)C(C)C)C(C)C)C(=O)O`, for which the concentration for half-maximal inhibition (IC50) turned out to be 22 nM.
